Assay results taken from patent US12564589B2, “Methods for treating cancer, reducing side effects of cancer treatment, and preventing the recurrence of cancer” (Florida State University Research Foundation, Inc., priority 2024, dated 2026).

Experiments:
[1] = tested on: Budding yeast strains carrying H3G34R mutant; experiment: Yeast viability by colony enumeration after genotoxic agents; assay type: cell-based; settings: 90 minutes treatment
Experimental: FIGS. 8A-8G show deficiency of H3.3 in cells from multiple species results in accumulation of genomic instability and endogenous DNA damage, as well as hypersensitivity to DNA damaging agents. (FIG. 8A) Enhanced rate of micronuclei formation in H3.3KD cells. Micronuclei score was determined as described previously from 1000 LUC and H3.3KD cells. The difference between LUC and H3.3 was trending towards significance (p=0.12). (FIG. 8B) Increased incidence of lagging chromosomes during mitosis in H3.3KD cells. Quantitation of lagging chromosomes from 100 anaphases in LUC and H3.3KD cells is shown. (FIG. 8C) Flies deficient in H3.3 accumulate endogenous DNA damage. Western blot showing the levels of γH2A.v (the fly homolog of mammalian γH2A.X) in adult flies of the indicated genotypes: wild-type (WT; Oregon-R), heterozygous (het, with just one H3.3 allele) and rescue (res, which completely lacks H3.3, but its sterility is rescued by an extra copy of H3.2 driven by the H3.3B promoter). A sample from flies treated with 10 Gy IR is included as a positive control for γH2A.v signal. […] 100 third instar Drosophila larvae from WT and heterozygous (H3.3 Het) genotype carrying just one out of four alleles of H3.3 were exposed to either IR or ultra violet (UV) light and their development into adult flies was monitored for over two weeks. […] Viable flies remaining were scored daily for a week. […]

[2] = tested on: H3.3KD cells; experiment: Viability by flow cytometry (Live/Dead staining) after DNA damaging agents; assay type: cell-based, human
Experimental: FIGS. 1A-1G show replacement histone variant H3.3 is rapidly recruited to DNA damage sites and cells deficient in H3.3 accumulate endogenous damage, while also being hypersensitive to DNA damaging agents. FIG. 1A: Histone variant H3.3 is rapidly recruited to sites of laser induced DNA damage in living cells. HCT116 human colon carcinoma cells were transiently co-transfected with expression constructs for H3.3-mEmerald and RFP-PCNA. […] Percent recruitment was calculated by dividing the number of cells recruiting H3.3 by the number of cells recruiting PCNA in the same cells. n=number of cells analyzed. […] The percentage knockdown for each clone shown at the bottom of the lanes was quantitated by measuring fluorescence intensity of the H3.3 band relative to the signal from the H4 band on a Li-Cor Odyssey imager. […] The presence of endogenous damage in H3.3KD and control LUC cells was determined by Western blotting of whole cell extracts using the indicated antibodies. […] 48 hours after MMS treatment, the viability of the cells was scored by flow cytometry using the violet fluorescent Live/Dead cell staining kit (Invitrogen) following the manufacturer's instructions. […] Significant differences between treatments are indicated by p values determined using a t-test. […]

| SMILES | sensitivity of H3G34R yeast compared to wild-type [1] | sensitivity of H3.3 KD cells compared to control LUC cells ([2]; 0.0175% MMS for 2 hours, viability 48 hours after) | sensitivity of H3.3 KD cells compared to control LUC cells ([2]; 0.5 mM Mimo) |
| --- | --- | --- | --- |
| COS(C)(=O)=O [MMS, methyl methane sulfonate] | hypersensitive | very sensitive | – |
| NC(Cn1ccc(=O)c(O)c1)C(=O)O (stereo not drawn) [Mimosine] | – | – | very sensitive |
